Results from patent EP1914237B1 (priority 1999, dated 2001).
Where two headings read alike, the source gives them in different places.

Columns and labels:
HCMV [1] = system: HCMV
[2] = system: Humans with Steroid-Induced Osteoporosis; test: Stimulation of bone formation in humans with steroid-induced osteoporosis; assay type: in vivo; conditions: oral 0.1 to 100 mg/kg/day, one month to one year; versus placebo
[3] = system: human lung fibroblast cells (MRC-5); test: Cytotoxicity of test compounds in vitro in MRC-5 cells (visual estimate of cell number); assay type: cell-based
Experimental: (§1) Cytotoxicity of test compounds in vitro: Subconfluent human lung fibroblast cells (MRC-5, American Type Culture Collection, Rockville, MD) in 24-well plates were treated with drugs diluted in E-MEM (Gibco BRL, Grand Island, NY) supplemented with 2% fetal bovine serum and antibiotics. After 5 days of incubation at 37°C, the cell monolayer was visually inspected under magnification and the concentration of drug which caused a 50% reduction in cell number was estimated.

HSV-1 = test: microbe, parasite or virus in culture; assay type: cell-based
Humans with Osteoporosis = conditions: postmenopausal women, oral 0.1 to 100 mg/kg/day, two to three years; versus placebo
Vaccinia = test: microbe, parasite or virus in culture; assay type: cell-based; conditions: read-out: EC50, µM Vaccinia
cowpox virus = test: microbe, parasite or virus in culture; assay type: cell-based; conditions: for IC50: read-out: IC50 in cowpox infected cells
CEM = test: Cytotoxicity in CEM cells; conditions: read-out: CEM, CC50; Table 1; rapidly dividing cells
Cowpox = test: organism not typed; assay type: cell-based; conditions: read-out: EC50, µM Cowpox
[4] = system: Variola Major, Bangladesh; test: organism not typed; assay type: cell-based; conditions: read-out: EC50, µM Variola Major, Bangladesh
HFF Cells = conditions: human
HCMV [5] = test: microbe, parasite or virus in culture; conditions: Human betaherpesvirus 5, MRC5
in vitro = conditions: monkey, vero cells
vaccinia virus = test: microbe, parasite or virus in culture; assay type: cell-based; conditions: Orthopoxvirus vaccinia, HFF; for IC50: read-out: IC50 against vaccinia virus; for EC50: read-out: Vaccinia EC50, µM
HIV-1 [6] = test: microbe, parasite or virus in culture; conditions: Human immunodeficiency virus 1
[7] = Cytotoxicity of test compounds in vitro in MRC-5 cells (visual estimate of cell number); assay type: cell-based, human; conditions: human, mrc-5 cells; Table 2; MRC-5, 5 days at 37°C
Experimental: as §1

[8] = Cytotoxicity by the method of Hostetler et al. (HIV study); assay type: cell-based; conditions: human, ht4-6c cells; Table 6; cell line of the cytotoxicity test not stated
HIV-1 [9] = system: HIV-1
Variola Major, Yamada = assay type: cell-based; conditions: Table 4; Vero cells; average of 3 determinations
Vero cells = conditions: monkey
Variola Minor, Garcia = assay type: cell-based; conditions: Table 4; Vero cells; average of 3 determinations
Ovariectomized Rats = conditions: subcutaneous 0 to 8 mg /kg/day, four to twelve weeks; versus ovariectomized controls
MLO-Y4 osteocytic cells = conditions: pretreated 1 hour, then 6 hours with 10^-4 M dexamethasone; percentage of dead cells; p<0.05
Calvarial cells = test: Dexamethasone-induced apoptosis in calvarial cells (trypan blue uptake); assay type: cell-based, neonatal C57BL/6J mice; conditions: pretreated 1 hour, then 6 hours with 10^-4 dexamethasone; p=<0.05
[10] = Table 7, assessed as described in Example 17, 7200 min
[11] = Table 1, against HCMV, CC50 in CEM cells
[12] = Cowpox virus, HFF, read-out: Cowpox, EC50, µM
[13] = Table 4, Vero cells, average of 3 determinations

## 1-O-octadecyl-sn-glyceryl-3-adefovir [1-O-octadecyl-sn-glycero-3-ADV]
HCMV [1]
  EC50: 210 nM

## 1-O-octadecyloxypropyl-amino-olpadronate
[2]
  bone density: bone density is increased
  fractures: fractures are decreased

## CCCCCCCCCCCCCCCCCCOCCOP(=O)(O)COC(CO)Cn1ccc(N)nc1=O (stereo not drawn) [1-O-octadecylethanediol-2-CDV]
[3]; Table 2, MRC-5, 5 days at 37°C
  CC50: 210 µM
[3]; [10]
  CC50: 210 µM
HSV-1; read-out: EC50
  EC50: 0.002 µM

## CCCCCCCCCCCCCCCCCCOCCOP1(=O)COC(Cn2ccc(N)nc2=O)CO1 (stereo not drawn) [1-O-octadecylethanediol-2-cCDV]
[3]; Table 2, MRC-5, 5 days at 37°C
  CC50: 320 µM
[3]; [10]
  CC50: 320 µM
HCMV [1]
  EC50: 0.3 nM
HSV-1; read-out: EC50
  EC50: 0.008 µM

## CCCCCCCCCCCCCCCCCCOCCCOP(=O)(O)C(O)(CCCN)P(=O)(O)O (stereo not drawn) [1-O-octadecyloxypropyl alendronate, 1-O-octadecyloxypropyl-alendronate]
Humans with Osteoporosis
  fractures: fewer fractures
  rate of reduction in bone density: a lesser rate of reduction in bone density than the placebo group

## CCCCCCCCCCCCCCCCCCOCCCOP(=O)(O)CO[C@H](CO)Cn1ccc(N)nc1=O [1-O-octadecylpropanediol-3-CDV]
[3]; Table 2, MRC-5, 5 days at 37°C
  CC50: 32 µM
[3]; [10]
  CC50: 32 µM
HCMV [1]
  EC50: 0.03 nM
HSV-1; read-out: EC50
  EC50: 0.003 µM

## CCCCCCCCCCCCCCCCCCOCCCOP1(=O)COC(Cn2ccc(N)nc2=O)CO1 (stereo not drawn) [1-O-octadecylpropanediol-3-cCDV]
[3]; Table 2, MRC-5, 5 days at 37°C
  CC50: 320 µM
[3]; [10]
  CC50: 320 µM
HCMV [1]
  EC50: 0.3 nM
HSV-1; read-out: EC50
  EC50: 0.33 µM

## Nc1ccn(C[C@@H](CO)OCP(=O)(O)O)c(=O)n1 [CDV, cidofovir]
Vaccinia; Orthopoxvirus vaccinia, Vero
  EC50: 2.2 µM
[3]; Table 2, MRC-5, 5 days at 37°C
  CC50: > 1000 µM
[3]; [10]
  CC50: > 1000 µM
HCMV [1]; [11]
  Selectivity Index: 1,900
Cowpox virus; [12]
  EC50: 2.1 µM
Cowpox virus; Cowpox virus, HFF
  IC50: 2.1 µM
CEM
  CC50: 857 µM
Cowpox; Vero
  EC50: 3.8 µM
[4]; Vero
  EC50: 100 µM
HFF Cells
  CC50: 89.8 µM
HCMV [5]
  EC50: 0.46 µM
In vitro
  CC50: > 100 µM
Vaccinia virus
  IC50: 1.8 µM
  EC50: 1.8 µM
HSV-1; Human alphaherpesvirus 1, MRC5
  EC50: 1.2 µM

## CCCCCCCCCCCCCCCCOCCCOP(=O)(O)COCCn1cnc2c(N)ncnc21 [HDP-Adefovir]
HIV-1 [6]
  EC50: 0.008 µM
[7]
  CC50 at 120 h: 6.5 µM
HCMV [1]
  Selectivity Index: 65
[8]
  CC50: 6.5 µM
HCMV [5]
  EC50: 0.1 µM
HIV-1 [9]
  EC50,µM: more active and selective than adefovir
  Selectivity Index: 813

## CCCCCCCCCCCCCCCCOCCCOP(=O)(O)CO[C@H](CO)Cn1ccc(N)nc1=O [HDP-CDV]
Variola Major, Yamada
  EC50: 0.0015 µM
Vaccinia; [13]
  EC50: < 0.03 µM
[3]; Table 2, MRC-5, 5 days at 37°C
  CC50: 10 µM
[3]; [10]
  CC50: 10 µM
HCMV [1]
  EC50: 0.002 nM
Cowpox; [13]
  EC50: < 0.03 µM
Vero cells
  CC50: > 0.1 µM
[4]; [13]
  EC50: 0.0015 µM
Variola Minor, Garcia
  EC50: 0.0006 µM

## CCCCCCCCCCCCCCCCOCCCOP(=O)(O)C(O)(CCCN)P(=O)(O)O (stereo not drawn) [HDP-alendronate, 1-O-hexadecylpropanediol-3-alendronate]
Ovariectomized Rats
  bone mass loss (ash weight of the femora): less bone mass loss than the ovariectomized controls
MLO-Y4 osteocytic cells
  concentration at which dexamethasone-induced apoptosis is inhibited: 10^-8 to 10^-5 M
Calvarial cells
  concentration at which the dexamethasone-induced increase in % dead cells is abolished: ≥ 10^-8

## CCCCCCCCCCCCCCCCOCCCOP1(=O)COC(Cn2ccc(N)nc2=O)CO1 (stereo not drawn) [HDP-cCDV, 1-O-hexadecylpropanediol-3-cyclic CDV]
[3]; Table 2, MRC-5, 5 days at 37°C
  CC50: 320 µM
[3]; [10]
  CC50: 320 µM
HCMV [1]
  EC50: 0.3 nM
HCMV [1]; read-out: HCMV EC50
  EC50: 0.5 nM
Cowpox virus; Table 3, preliminary, HFF cells, CPE reduction, read-out: Cowpox, EC50
  EC50: < 0.03 µM
Cowpox virus; Table 3
  IC50: < 0.03 µM
CEM
  CC50: 30 µM
Cowpox; [13]
  EC50: < 0.03 µM
Vero cells
  CC50: > 0.1 µM
[4]; [13]
  EC50: > 0.01 µM
HFF Cells
  CC50: > 100 µM
HSV-1; read-out: EC50
  EC50: 0.03 µM

## CCCCCCCCCCCCCCCCOP1(=O)COC(Cn2ccc(N)nc2=O)CO1 (stereo not drawn) [Hexadecyl-cCDV]
[3]; Table 2, MRC-5, 5 days at 37°C
  CC50: 6.5 µM
HCMV [1]
  EC50: 40 nM

## Nc1ccn(C[C@H]2COP(=O)(O)CO2)c(=O)n1 [cCDV, cyclic cidofovir]
[3]; Table 2, MRC-5, 5 days at 37°C
  CC50: > 1000 µM
[3]; [10]
  CC50: > 1000 µM
HCMV [1]; [11]
  Selectivity Index: >2,100
Cowpox virus; [12]
  EC50: 0.72 µM
Cowpox virus; Cowpox virus, HFF
  IC50: 0.72 µM
CEM
  CC50: > 1000 µM
Vero cells
  CC50: > 100 µM
[4]; Vero
  EC50: 100 µM
HFF Cells
  CC50: > 100 µM
HCMV [5]
  EC50: 0.47 µM
Vaccinia virus
  IC50: 0.97 µM
  EC50: 0.97 µM
HSV-1; Human alphaherpesvirus 1, MRC5
  EC50: 2.1 µM
